Consider one compound from patent US6080780A, “Use of nitroflavonoids for the treatment of anxiety” (University of Strathclyde, priority 1995, dated 2000).

The test system of data set [1] is benzodiazepine (BDZ-R) receptor. Nature of the data set: 3H-Flunitrazepam binding to extensively washed bovine cerebral cortical membranes. The method, then: Non-specific nitration of the flavone nucleus yielded the two nitrated flavone (II) and (IIa). […] Briefly, ^3 H-FNZ binding was carried out as described by Levy de Stein, M., Medina, J. H., De Robertis E., Mol. Brain Res. 1985, 5, 9-15. In brief, for each assay, triplicate samples of the membranes, containing 0.2 to 0.4 mg protein were suspended in a final volume of 1 mL of 0.25 mM Tris-HCl buffer, pH 7.3. The incubation was carried out at 4° C. for 60 minutes with 0.6 nM ^3 -FNZ. To study the binding saturation, a range of 0.3 to 10 nM ^3 H-FNZ was used. Non-specific binding was determined in parallel incubations in the presence of 3 μM FNZ, and represented 5-15% of total. The assays were terminated by filtration under vacuum though Whatman GF/A glass-fiber filters, and three washes with 3 mL each of incubation medium. Filters were dried and counted after the addition of 5 mL of 2,5-diphenyloxazole/xylene as scintillation fluid. Bovine cerebral cortical membranes were treated substantially following the method of Medina, J. H., De Robertis, E. J., J. Neurochem. 1985, 44, 1340-1345.

The test system of data set [2] is muscarinic cholinergic receptors. Format: binding. The note with it: 20 μM; data not shown.
For data set [3], the system named is mice. Nature of the data set: Elevated plus maze test in mice (Section 2). Format: in vivo, male Swiss mice. The method, then:
(§1) Adult male Wistar rats weighing 250 g were used for biochemical experiments. Adult male Swiss male weighing 25-30 g were used for pharmacological assays except for inhibitory avoidance and tail flick tests were done in rats. Animals were housed in a controlled environment, with free access to food and water and maintained on a 12 h/12 h day/night cycle.
An Opto-varimex® apparatus was used according to Viola et al. (1994). The apparatus discriminates between total and ambulatory activities. An increase in the number of transitions through the beams reflects augmented locomotor activity. In this and all following tests in mice, animals were i.p. injected with the vehicle, or with DNF 20 min before the beginning of the tests. In each session, control mice were tested in parallel with those animals receiving drug treatment.
The test was performed in the same session immediately after the locomotor activity measurement (Viola et al., 1994; Wolfman et al., 1994). […] A series of experiments with the injection of the selective central benzodiazepine receptor antagonist Ro 15-1788 (File and Pellow, 1986) was also carried out.

The subject of data set [4] is mice. Nature of the data set: Horizontal wire test in mice. It counts as in vivo, male Swiss mice. The method, then: as §1
This test was carried out as previously described (Viola et al., 1994; Wolfman et al., 1994; Viola et al., 1995). The test took place after two trials, performed at 5 min intervals. A myorelaxant drug will impair mice to grasp the wire (Bonetti et al., 1982). The effect of DNF )1 mg/kg) on DZ-induced myorelaxation was also determined.

Data set [5] deals with mice. Nature of the data set: Pentylenetetrazole (PTZ)-induced seizures. It counts as in vivo. The method, then: The effects of DNF on pentylenetetrazole (PTZ)--induced convulsions were evaluated according to Medina et al., (1990) with slight modifications. PTZ (200 mg/kg) was administered i.p. to mice 15 min after injection of drug or vehicle. The number of mice presenting clonic convulsions was determined.
Data are expressed as the percentage of mice presenting clonic or tonic-clonic seizures. ^3 number of animals per group.

Another data set has as its system rats. Nature of the data set: Inhibitory avoidance test in rats. Format: in vivo, rat. The method, then:
This test was performed according to Izquierdo et al., (1990). The training apparatus was a 50×25×25 cm acrylic box with a frontal glass panel and a floor made of parallel 1 mm caliber bronze bars spaced […] apart. A 5 cm high, 7 cm wide formica platform was placed on the loft extreme of the box. Rats were placed on the platform and their latency to step-down placing their four paws on the grid was measured. On stepping-down they received a 0.35 mA, 2 s scrambled footshock and were withdrawn from the box (training session). The test session was carried out 20 h later and was similar to the training session in all respects except that the footshock was omitted. Test step-down latency (to a ceiling of 180 s) was taken as a measure of retention of inhibitory avoidance (Izquierdo et al., 1990).

Data set [6] deals with central benzodiazepine receptors (BDZ-Rs). Nature of the data set: 3H-FNZ binding to rat brain synaptosomal membranes (Section 3). The note with it: rat cerebral cortex; read-out: Ki, 3H-FNZ binding. The method, then: In brief, for each assay, triplicate samples of the membranes, containing 0.2 to 0.4 mg protein were suspended in a final volume of 1 mL of 0.25 mM Tris--HCl buffer, pH 7.3. The incubation was carried out at 4° C. for 60 min with 0.6 nM ^3 H--FNZ. to study the binding saturation, a range of 0.3 to 10 nM ^3 H--FNZ was used. […] The assays were terminated by filtration under vacuum through Whatman GF/A glass-fiber filters, and three washes with 3 mL each of incubation medium. Filters were dried and counted after the addition of 5 mL of 2,5-diphenyloxazole/xylene as scintillation fluid.
The binding of ^3 H--FNZ was carried out as for (i) above.

Structures are written as SMILES. “Also recorded” adds a separate entry of the source.

For the compound `O=c1cc(-c2cccc([N+](=O)[O-])c2)oc2ccc([N+](=O)[O-])cc12` [Compound (II), 6,3'-dinitroflavone], in data set [1] (bovine membranes, compound (II) 20 nM (FIG. 1)), the “Scatchard analysis of saturation curves (type of interaction)” value is “competitive interaction showing a decline in the apparent affinity without changes in the maximal number of sites (Bmax)”. Moreover, the Ki in data set [1] (read-out: Ki, inhibition of 3H-FNZ binding, bovine cerebral cortical membranes, 0.6 nM 3H-FNZ, 4° C., 60 min, n=7) amounted to 12 ± 1.7 nM; in data set [6], 20 nM. In addition, the “displacement of [3H]-quinuclidinyl benzilate binding” value in data set [2] was “did not displace”. In addition, the “effect of Ro 15-1788 on DNF anxiolytic effect” value in the data set on mice [3] (mice, DNF 30 μg/kg + Ro 15-1788 1 mg/kg, listed as DNF, 1 mg/kg) is “blocked by the injection of Ro 15-1788; also recorded: blocked by the administration of the selective benzodiazepine antagonist Ro 15-1788”. In the data set on mice [3] (mice, i.p., 30 μg/kg), the total arm entries entry is “No differences were observed in the total arm entries”. For the same compound, the “percentage of entries in the open arms” value in the data set on mice [3] (mice, i.p., 30 μg/kg, p<0.01) was “increased the percentage of entries in the open arms”. Moreover, the “anxiolytic potency in comparison to DZ” value with mice [3] (ratio to diazepam) is 30 times. For the same compound, the “effect on DZ-induced myorelaxation” value with mice [4] (mice, DNF plus DZ (1 mg/kg), listed as DNF) is recorded as “counteracted; also recorded: able to reverse the myorelaxant effect of the full agonist DZ; also recorded: prevents the muscle relaxation effect of a full benzodiazepine receptor agonist”. Moreover, in the data set with mice [4] (mice, i.p., DNF plus DZ (1 mg/kg), p<0.001), the “animals showing myorelaxant effect, DNF plus DZ” value is 2 animals out of 15. Also, the “percentage of mice grasping the wire” value in the data set with mice [4] (mice, i.p., up to 10 mg/kg) is recorded as “did not affect the percentage of mice grasping”. Also, the myorelaxant effects entry with mice [4] (up to 10 mg/kg) is recorded as “did not evidence anticonvulsant, myorelaxant”. The “% of convulsing mice” value in the data set on mice [5] (DNF 0.03 mg/kg, n=6) stood at 100%; in the data set with mice [5] (DNF 0.1 mg/kg, n=12), 75%; in the data set on mice [5] (DNF 0.3 mg/kg, n=15), 80%; in the data set on mice [5] (DNF 1.0 mg/kg, n=13), 92.4%; with mice [5] (DNF 3.0 mg/kg, n=5) it was 100%; in the data set with mice [5] (DNF 6.0 mg/kg, n=7), 100%. Also, the “prevention of PTZ-induced seizures” value in the data set with mice [5] (mice, 30 μg/kg-6 mg/kg, PTZ 200 mg/kg) is listed as “did not prevent the seizures”. The anticonvulsant effects result with mice [5] (up to 10 mg/kg) was “did not evidence anticonvulsant”. In the data set with rats (rats, i.p., 100 μg/kg, pre or posttraining), the “test session performance of inhibitory avoidance” value is given as “no effect”. In addition, the amnesic effects entry in the data set with rats (up to 10 mg/kg as worded) is given as “did not evidence anticonvulsant, myorelaxant, amnesic”.
